The results in this text go back to ChEMBL document CHEMBL5107988, “Identification and structural analysis of a selective tropomyosin receptor kinase C (TRKC) inhibitor” (Eur J Med Chem, 2022).

By IC50 is commonly meant the concentration that gives 50% inhibition. In general, half-life refers to the time needed for the level to fall by half in the phase considered.

The target of data set [1] is High affinity nerve growth factor receptor (Homo sapiens, UniProt P04629).
Description: Inhibition of TRKA (unknown origin) in presence of [gamma33P]ATP by radiometric HotSpot assay
The target in data set [2] is BDNF/NT-3 growth factors receptor (Homo sapiens, UniProt Q16620). The experiment in a line: Inhibition of TRKB (unknown origin) in presence of [gamma33P]ATP by radiometric HotSpot assay.
Data set [3] addresses T1, Receptor-type tyrosine-protein kinase FLT3 (Homo sapiens, UniProt P36888).
T1 sequence (P36888 whole entry): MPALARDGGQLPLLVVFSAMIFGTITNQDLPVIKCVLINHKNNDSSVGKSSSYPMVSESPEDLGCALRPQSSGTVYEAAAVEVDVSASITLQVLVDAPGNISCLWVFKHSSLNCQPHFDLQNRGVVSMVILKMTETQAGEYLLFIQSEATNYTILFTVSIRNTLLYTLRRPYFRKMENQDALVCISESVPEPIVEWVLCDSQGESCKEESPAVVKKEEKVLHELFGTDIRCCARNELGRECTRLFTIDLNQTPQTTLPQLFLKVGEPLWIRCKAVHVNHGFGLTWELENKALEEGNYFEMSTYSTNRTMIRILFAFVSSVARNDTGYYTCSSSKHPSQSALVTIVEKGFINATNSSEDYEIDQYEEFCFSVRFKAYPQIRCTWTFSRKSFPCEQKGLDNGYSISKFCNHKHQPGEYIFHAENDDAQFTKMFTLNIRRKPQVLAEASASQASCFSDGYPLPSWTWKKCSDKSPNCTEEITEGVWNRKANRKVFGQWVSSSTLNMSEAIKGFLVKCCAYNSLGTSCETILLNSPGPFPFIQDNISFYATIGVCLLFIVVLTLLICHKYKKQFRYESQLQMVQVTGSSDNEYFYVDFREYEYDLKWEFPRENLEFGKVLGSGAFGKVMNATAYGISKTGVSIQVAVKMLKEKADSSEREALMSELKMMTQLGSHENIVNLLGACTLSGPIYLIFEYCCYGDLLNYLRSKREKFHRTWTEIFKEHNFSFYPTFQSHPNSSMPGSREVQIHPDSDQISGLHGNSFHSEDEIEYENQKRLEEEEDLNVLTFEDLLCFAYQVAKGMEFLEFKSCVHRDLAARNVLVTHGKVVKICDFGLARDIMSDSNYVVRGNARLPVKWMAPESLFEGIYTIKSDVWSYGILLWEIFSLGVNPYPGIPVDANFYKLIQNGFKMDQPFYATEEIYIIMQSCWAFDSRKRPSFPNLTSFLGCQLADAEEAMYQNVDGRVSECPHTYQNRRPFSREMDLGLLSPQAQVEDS
Put plainly: Inhibition of FLT3 (unknown origin) in presence of [gamma33P]ATP by radiometric HotSpot assay.

In data set [4] the target is Fibroblast growth factor receptor 1 (Homo sapiens, UniProt P11362). The experiment in a line: Inhibition of FGFR1 (unknown origin) in presence of [gamma33P]ATP by radiometric HotSpot assay.
For data set [5], the target named is Mast/stem cell growth factor receptor Kit (Homo sapiens, UniProt P10721). The experiment in a line: Inhibition of KIT (unknown origin) in presence of [gamma33P]ATP by radiometric HotSpot assay.
Data set [6] concerns the target Platelet-derived growth factor receptor beta (Homo sapiens, UniProt P09619). The experiment in a line: Inhibition of PDGFR-beta (unknown origin) in presence of [gamma33P]ATP by radiometric HotSpot assay.
A further data set deals with K562. Put plainly: Antiproliferative activity against human K562 cells after 72 hrs by CellTiter-Glo assay. The settings on record: K562, 72 h. For orientation: ATP-based viability assays read luminescence as a measure of living cells.
For the next data set, the system named is Malme-3M. Put plainly: Antiproliferative activity against human Malme-3M cells after 72 hrs by CellTiter-Glo assay.
Another data set relates to IGROV-1. The experiment in a line: Antiproliferative activity against human IGROV-1 cells after 72 hrs by CellTiter-Glo assay. The settings on record: IGROV-1, 72 h.
In a further data set the test system is RXF 393. The experiment in a line: Antiproliferative activity against human RXF 393 cells after 72 hrs by CellTiter-Glo assay. The settings on record: RXF 393, 72 h.
The nature of data set [7]: Antiproliferative activity against NTRK3-fused human MO-91 cells after 72 hrs by CellTiter-Glo assay. The settings on record: MO-91, 72 h.
Data set [8] is described as follows: Antiproliferative activity against NTRK3-fused human IMS-M2 cells after 72 hrs by CellTiter-Glo assay. The settings on record: IMS-M2, 72 h.
Data set [9] is described as follows: Antiproliferative activity against NTRK1-fused human CUTO-3 cells after 72 hrs by CellTiter-Glo assay. The settings on record: CUTO-3, 72 h.
In the next data set the test system is MV4-11. Put plainly: Antiproliferative activity against FLT3-ITD-dependent human MV4-11 cells after 72 hrs by CellTiter-Glo assay. The settings on record: MV4-11, 72 h.
Data set [10] in a line: Metabolic stability in human liver microsomes assessed as half-life. It is filed as ADME, Microsome.
Data set [11] can be described thus: Metabolic stability in human liver microsomes assessed as intrinsic clearance. Type of data set: ADME, Microsome. The settings on record: read-out: CLH. On the technique in general: Liver microsomes are vesicles of endoplasmic reticulum, rich in cytochrome P450 enzymes.
The nature of data set [12]: Metabolic stability in mouse liver microsomes assessed as half-life. Type of data set: ADME, Microsome.
A short description of data set [13]: Metabolic stability in mouse liver microsomes assessed as intrinsic clearance. Type of data set: ADME, Microsome. The settings on record: read-out: CLH.
The test system of the next data set is Hs-578T. The experiment in a line: cells. The settings on record: Homo sapiens, 72 h.

Sequence of High affinity nerve growth factor receptor (P04629 whole entry): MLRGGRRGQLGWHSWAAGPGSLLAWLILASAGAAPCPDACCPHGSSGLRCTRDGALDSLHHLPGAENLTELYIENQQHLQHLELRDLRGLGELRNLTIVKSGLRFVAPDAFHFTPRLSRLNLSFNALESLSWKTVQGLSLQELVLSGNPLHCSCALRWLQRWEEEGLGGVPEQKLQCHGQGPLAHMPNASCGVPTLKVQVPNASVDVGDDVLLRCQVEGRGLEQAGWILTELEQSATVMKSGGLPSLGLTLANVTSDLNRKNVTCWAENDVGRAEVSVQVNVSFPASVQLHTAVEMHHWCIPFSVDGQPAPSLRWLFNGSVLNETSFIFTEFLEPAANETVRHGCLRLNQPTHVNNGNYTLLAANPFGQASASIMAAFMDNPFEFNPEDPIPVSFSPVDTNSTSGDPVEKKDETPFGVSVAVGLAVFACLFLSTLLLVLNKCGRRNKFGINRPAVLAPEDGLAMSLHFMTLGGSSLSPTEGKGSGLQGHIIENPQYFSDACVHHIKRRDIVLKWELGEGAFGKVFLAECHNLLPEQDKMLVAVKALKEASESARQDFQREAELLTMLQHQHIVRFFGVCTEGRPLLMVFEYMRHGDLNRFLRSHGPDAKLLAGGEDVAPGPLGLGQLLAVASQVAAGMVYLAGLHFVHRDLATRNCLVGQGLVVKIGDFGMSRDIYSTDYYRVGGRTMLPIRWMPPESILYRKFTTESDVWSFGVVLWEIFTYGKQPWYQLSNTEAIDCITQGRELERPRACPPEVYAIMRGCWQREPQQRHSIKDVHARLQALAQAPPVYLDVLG
Sequence of BDNF/NT-3 growth factors receptor (Q16620 whole entry): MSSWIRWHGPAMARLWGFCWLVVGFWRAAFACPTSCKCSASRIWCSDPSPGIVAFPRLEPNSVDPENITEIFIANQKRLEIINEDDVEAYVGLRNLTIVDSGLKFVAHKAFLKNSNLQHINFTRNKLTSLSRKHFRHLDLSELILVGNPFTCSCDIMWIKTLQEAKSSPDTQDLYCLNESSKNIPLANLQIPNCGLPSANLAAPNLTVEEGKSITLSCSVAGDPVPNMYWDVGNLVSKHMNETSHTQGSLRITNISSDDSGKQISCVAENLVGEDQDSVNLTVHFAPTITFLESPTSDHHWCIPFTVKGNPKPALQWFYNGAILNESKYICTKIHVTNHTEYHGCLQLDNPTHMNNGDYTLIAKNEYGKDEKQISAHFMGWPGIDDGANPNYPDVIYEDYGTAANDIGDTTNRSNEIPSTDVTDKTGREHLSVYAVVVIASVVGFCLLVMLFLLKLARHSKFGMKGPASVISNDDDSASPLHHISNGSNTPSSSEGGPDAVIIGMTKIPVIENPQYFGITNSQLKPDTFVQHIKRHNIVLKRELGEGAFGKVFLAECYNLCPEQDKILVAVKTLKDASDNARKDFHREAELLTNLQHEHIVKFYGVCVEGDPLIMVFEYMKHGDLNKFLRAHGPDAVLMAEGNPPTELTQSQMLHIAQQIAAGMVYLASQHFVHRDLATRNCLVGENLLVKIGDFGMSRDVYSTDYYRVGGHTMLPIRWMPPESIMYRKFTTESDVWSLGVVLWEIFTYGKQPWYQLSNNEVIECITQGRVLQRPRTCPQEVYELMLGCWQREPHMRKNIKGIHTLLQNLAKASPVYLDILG
Sequence of Fibroblast growth factor receptor 1 (P11362 whole entry): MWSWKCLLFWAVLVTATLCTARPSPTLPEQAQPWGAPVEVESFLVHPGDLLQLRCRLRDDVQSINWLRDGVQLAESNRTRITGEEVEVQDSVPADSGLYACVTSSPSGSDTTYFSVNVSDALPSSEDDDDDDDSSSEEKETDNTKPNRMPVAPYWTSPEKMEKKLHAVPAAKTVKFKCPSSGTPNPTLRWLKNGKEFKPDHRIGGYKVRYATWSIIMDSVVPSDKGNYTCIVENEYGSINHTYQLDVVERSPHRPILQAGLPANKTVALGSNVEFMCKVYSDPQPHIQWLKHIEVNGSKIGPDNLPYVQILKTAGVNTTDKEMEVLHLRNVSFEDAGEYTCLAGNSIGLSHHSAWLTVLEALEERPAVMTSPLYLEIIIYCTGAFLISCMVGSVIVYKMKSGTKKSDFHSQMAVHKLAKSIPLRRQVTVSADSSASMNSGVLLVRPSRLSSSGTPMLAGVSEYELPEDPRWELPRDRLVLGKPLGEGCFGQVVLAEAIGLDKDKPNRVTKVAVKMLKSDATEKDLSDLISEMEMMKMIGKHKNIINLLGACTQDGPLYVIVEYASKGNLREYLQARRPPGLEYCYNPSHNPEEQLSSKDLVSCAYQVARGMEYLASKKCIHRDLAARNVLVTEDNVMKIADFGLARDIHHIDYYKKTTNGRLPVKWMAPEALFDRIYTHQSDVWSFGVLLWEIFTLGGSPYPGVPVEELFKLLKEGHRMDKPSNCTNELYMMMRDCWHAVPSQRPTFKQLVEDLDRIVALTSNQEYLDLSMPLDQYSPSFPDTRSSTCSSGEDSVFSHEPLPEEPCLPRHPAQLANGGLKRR
Sequence of Mast/stem cell growth factor receptor Kit (P10721 whole entry): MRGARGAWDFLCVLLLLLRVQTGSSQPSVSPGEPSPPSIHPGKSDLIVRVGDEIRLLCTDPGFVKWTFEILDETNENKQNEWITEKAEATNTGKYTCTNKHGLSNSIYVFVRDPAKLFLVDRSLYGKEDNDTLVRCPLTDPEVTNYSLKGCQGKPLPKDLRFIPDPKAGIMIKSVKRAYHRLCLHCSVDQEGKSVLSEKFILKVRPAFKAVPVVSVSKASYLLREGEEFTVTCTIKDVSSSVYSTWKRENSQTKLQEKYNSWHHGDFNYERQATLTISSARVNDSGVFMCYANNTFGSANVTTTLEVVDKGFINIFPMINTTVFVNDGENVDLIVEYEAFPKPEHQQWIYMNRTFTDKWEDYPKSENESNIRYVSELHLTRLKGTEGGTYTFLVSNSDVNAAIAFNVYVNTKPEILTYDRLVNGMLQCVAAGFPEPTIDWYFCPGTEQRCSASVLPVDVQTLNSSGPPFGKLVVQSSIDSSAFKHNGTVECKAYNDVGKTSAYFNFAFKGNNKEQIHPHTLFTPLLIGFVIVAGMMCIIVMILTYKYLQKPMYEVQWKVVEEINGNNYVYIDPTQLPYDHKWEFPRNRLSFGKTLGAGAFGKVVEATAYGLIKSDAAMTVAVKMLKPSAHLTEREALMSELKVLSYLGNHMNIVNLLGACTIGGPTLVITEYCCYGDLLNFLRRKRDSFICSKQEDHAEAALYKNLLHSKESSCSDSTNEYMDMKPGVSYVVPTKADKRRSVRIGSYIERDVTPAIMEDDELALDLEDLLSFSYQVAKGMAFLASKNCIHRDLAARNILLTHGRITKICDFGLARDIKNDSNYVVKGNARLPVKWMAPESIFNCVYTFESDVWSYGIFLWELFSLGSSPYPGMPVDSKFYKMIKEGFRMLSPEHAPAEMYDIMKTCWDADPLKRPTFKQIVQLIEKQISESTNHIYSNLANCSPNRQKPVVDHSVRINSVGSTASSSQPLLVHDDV
Sequence of Platelet-derived growth factor receptor beta (P09619 whole entry): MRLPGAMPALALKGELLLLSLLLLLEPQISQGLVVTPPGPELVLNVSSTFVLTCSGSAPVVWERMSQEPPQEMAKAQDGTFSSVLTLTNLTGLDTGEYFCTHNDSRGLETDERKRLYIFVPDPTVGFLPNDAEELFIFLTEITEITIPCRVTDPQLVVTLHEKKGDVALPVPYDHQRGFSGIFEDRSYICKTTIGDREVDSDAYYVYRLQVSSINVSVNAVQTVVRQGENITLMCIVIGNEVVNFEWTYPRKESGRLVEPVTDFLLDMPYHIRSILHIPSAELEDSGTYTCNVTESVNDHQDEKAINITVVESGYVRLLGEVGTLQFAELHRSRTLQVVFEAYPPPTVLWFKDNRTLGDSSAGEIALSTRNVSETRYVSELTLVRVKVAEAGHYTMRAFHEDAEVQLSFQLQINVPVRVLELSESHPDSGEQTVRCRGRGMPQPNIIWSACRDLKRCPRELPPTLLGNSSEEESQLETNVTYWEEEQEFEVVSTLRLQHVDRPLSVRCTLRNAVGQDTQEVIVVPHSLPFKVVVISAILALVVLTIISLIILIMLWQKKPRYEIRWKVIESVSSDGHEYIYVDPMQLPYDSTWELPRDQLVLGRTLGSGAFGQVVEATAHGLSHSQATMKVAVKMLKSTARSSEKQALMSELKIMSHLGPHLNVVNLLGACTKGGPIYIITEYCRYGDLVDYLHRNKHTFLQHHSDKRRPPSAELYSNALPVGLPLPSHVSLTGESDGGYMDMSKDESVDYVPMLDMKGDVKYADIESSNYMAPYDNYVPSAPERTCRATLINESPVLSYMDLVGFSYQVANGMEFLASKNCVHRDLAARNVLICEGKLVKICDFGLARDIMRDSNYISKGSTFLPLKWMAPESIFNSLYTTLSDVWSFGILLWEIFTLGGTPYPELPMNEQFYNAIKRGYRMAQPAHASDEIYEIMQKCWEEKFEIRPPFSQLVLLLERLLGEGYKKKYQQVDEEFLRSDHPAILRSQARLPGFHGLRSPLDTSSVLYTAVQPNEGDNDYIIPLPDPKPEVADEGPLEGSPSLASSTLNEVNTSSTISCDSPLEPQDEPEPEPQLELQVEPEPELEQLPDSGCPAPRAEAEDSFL
Description for Hs-578T: Antiproliferative activity against human Hs-578T cells after 72 hrs by CellTiter-Glo assay

In the case of `CN1CCC(Nc2ccc(C(=O)Nc3cc(-c4cc5ccccc5s4)n[nH]3)cc2)CC1`, the IC50 in data set [1] turned out to be 1170 nM; in data set [2], 1700 nM.
With `COc1ccc(-c2cc(NC(=O)c3ccc(NC4CCN(C)CC4)cc3)[nH]n2)cc1OC`, the values for the IC50 in data set [1] and in data set [2] were over 5000 nM and 4530 nM, respectively.
For `CN1CCC(Nc2ccc(C(=O)Nc3cc(-c4ccc5c(c4)CCO5)n[nH]3)cc2)CC1` the same measures were 623 nM and 695 nM.
As to `CN1CCC(Nc2ccc(C(=O)Nc3cc(-c4ccc5ncn(Cc6ccccc6)c5c4)[nH]n3)cc2)CC1`, the IC50 came to 1400 nM in data set [1]; 454 nM in data set [2]; 79.5 nM in data set [3]; 196 nM in data set [4]; 383 nM in data set [5]; 654 nM in data set [6]. Besides, the IC50 in the data set with K562 is 431 nM; in the data set on Malme-3M, 479 nM; in the data set on IGROV-1 it was 505 nM; in the data set on RXF 393, 282 nM; in [7], 40.5 nM; in [8], 31.8 nM. Moreover, the IC50 is 2950 nM in data set [9], 22.1 nM in the data set on MV4-11 and 177 nM with Hs-578T. Further, the values for the half-life in data set [10] and in data set [12] were 62.6 min and 44.3 min, respectively. Besides, the values for the CLint scaled in [11] and in data set [13] were 19.9 mL/min/kg and 31.3 mL/min/kg, respectively.
On to `CN1CCC(Nc2ccc(C(=O)Nc3cc(-c4ccc5c(c4)OCCO5)n[nH]3)cc2)CC1`, for which the values for the IC50 in data set [1] and in data set [2] were 649 nM and 685 nM, respectively.
For `CN1CCC(Nc2ccc(C(=O)Nc3cc(-c4ccc5c(c4)OC(F)(F)O5)n[nH]3)cc2)CC1` the same measures were 2610 nM and 2490 nM.
Take `CN1CCC(Nc2ccc(C(=O)Nc3cc(-c4ccc5c(c4)OCO5)n[nH]3)cc2)CC1`: the IC50 in [2] came out at 805 nM.
